In publication PMC3949708, “Identification and Biosynthesis of a Novel Xanthomonadin-Dialkylresorcinol-Hybrid from Azoarcus sp. BH72” (PLoS ONE, 2014):

What was measured:
[1] = biological target: T1, ArcB (Azoarcus olearius, UniProt A1KCI0); assay: GC-MS product detection after MSTFA derivatization; assay type: biochemical; details: 1 mM substrate, 2 µg ArcB, 100 mM Tris pH 7.4, 37 °C, 10 or 60 min
T1 construct: gene azo3920; full gene; CherryTag-His6 fusion cut off with TEV protease; E. coli BL21 (DE3) Star
T1 sequence (A1KCI0 entry or part of it): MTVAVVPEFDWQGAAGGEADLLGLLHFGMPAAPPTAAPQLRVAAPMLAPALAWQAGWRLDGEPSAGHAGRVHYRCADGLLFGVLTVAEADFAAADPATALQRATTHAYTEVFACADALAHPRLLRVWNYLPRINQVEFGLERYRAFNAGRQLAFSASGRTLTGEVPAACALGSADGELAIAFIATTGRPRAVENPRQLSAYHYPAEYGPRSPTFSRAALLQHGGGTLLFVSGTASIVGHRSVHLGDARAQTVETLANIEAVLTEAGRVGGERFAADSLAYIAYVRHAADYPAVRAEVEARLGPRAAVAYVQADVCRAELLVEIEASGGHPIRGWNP

[2] = biological target: T2, ArcT (Azoarcus olearius, UniProt A1K222); assay: MALDI-MS ATP-pyrophosphate isotopic exchange; assay type: biochemical; details: MgCl2, pyrophosphate, 20 mM Tris pH 7.4
T2 construct: gene azo0260; full gene; CherryTag-His6 fusion cut off with TEV protease; E. coli BL21 (DE3) Star
T2 sequence (A1K222 entry or part of it): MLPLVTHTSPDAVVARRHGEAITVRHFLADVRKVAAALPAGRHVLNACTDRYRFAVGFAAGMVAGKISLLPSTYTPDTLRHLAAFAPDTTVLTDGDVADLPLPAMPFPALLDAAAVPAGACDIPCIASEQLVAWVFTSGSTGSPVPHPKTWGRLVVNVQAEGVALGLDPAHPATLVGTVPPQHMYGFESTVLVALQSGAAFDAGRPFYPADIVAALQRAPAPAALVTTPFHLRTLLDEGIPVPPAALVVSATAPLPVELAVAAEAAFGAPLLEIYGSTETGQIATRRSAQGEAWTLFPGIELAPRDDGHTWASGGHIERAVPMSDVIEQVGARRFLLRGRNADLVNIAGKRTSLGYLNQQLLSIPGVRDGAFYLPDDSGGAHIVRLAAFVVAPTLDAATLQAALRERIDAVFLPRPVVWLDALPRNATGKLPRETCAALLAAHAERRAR

`C=C(O[C@@H]1C=C(C(=O)O)C=C[C@H]1O)C(=O)O` [chorismic acid] was tested, and the “GC-MS product detection after MSTFA derivatization” value [1] was 3-HBA was only detectable in assays containing ArcB.

`O=C(O)c1cccc(O)c1` [3-hydroxybenzoic acid] was tested, and the “GC-MS product detection after MSTFA derivatization” value ([1]; formed from chorismic acid) was 3-HBA was only detectable in assays containing ArcB and the “MALDI-MS ATP-pyrophosphate isotopic exchange” value ([2]; adenylation, [γ-18O4]-ATP) was “MALDI-MS analysis showed ATP-label exchange in assays with 3-HBA”.

For `Nc1ncnc2c1ncn2[C@@H]1O[C@H](COP(=O)(O)OP(=O)(O)OP(=O)(O)O)[C@@H](O)[C@H]1O` [[γ-^18O4]-ATP], the “MALDI-MS ATP-pyrophosphate isotopic exchange” value ([2]; 3-HBA as co-substrate, labelled compound) was “MALDI-MS analysis showed ATP-label exchange in assays with 3-HBA”.
